Experimental data from patent US8865662B2, “Macrolides and their use” (Basilea Pharmaceutica AG, priority 2009, dated 2014).

Tested on: human PDE4
Experiment: IMAP FP enzymatic assay of PDE4 inhibition
Type: biochemical
Conditions: PDE4 partially purified from human monocytic U-937 cells; fluorescently labeled cAMP substrate; 90 minutes at room temperature; fluorescence polarization
Procedure: PDE4 specifically hydrolyzes cAMP and releases the product AMP. The potency of PDE inhibition by said agents is determined in an in vitro enzymatic assay. The assay is commercially available (IMAP™ FP assay Molecular Devices Corp. (MDS)) and is optimized for the use of human PDE4. Fluorescently labeled cAMP is hydrolyzed by PDE4 and in a second step, binding of labeled product to a large binding partner allowed product detection by fluorescence polarization (FP) measurements.
PDE4 is partially purified from undifferentiated human monocytic cells (U-937) according to Thorpy et al. 1992 (J. Pharmacol. Exp. Ther. 263: 1195). […] In addition, PDE4 preparations are validated by inhibition studies with PDE4-specific and unspecific PDE inhibitors.
Stock solutions of test compounds are made in DMSO and diluted in assay buffer (10 mM Tris-HCl, 10 mM MgCl2, 0.1% BSA 0.05% NaN3, pH 7.2) to the desired concentrations. The solutions used in the assay contained test compound in assay buffer with 2% DMSO.
10 μl of substrate (at a concentration recommended by the manufacturer) are mixed with 5 μl of appropriately diluted PDE and 5 μl of test compound solution. 5 μl of reaction buffer with 2% DMSO are used for control reactions. […] After incubation for 90 minutes at room temperature, 60 μl of binding reagent are added as specified by the manufacturer. Binding is allowed to proceed for 30 minutes and fluorescence polarization is measured. Dose dependence of PDE inhibition is measured by assaying dilution series of test compounds in duplicates. IC50 values are determined from the measured activities by curve fitting.

Compound	IC50
CC[C@H]1OC(=O)[C@H](C)[C@@H](O[C@H]2C[C@@](C)(OC)[C@@H](O)[C@H](C)O2)[C@H](C)[C@@H](O[C@@H]2O[C@H](C)C[C@H](N(C)C(=O)N3CCOCC3)[C@H]2O)[C@](C)(OC)C[C@@H](C)C(=O)[C@H](C)[C@H]2N(CCCN(Cc3c(Cl)cncc3Cl)c3ccc(OC)c(OC4CCCC4)c3)C(=O)O[C@]12C [Example 1]	230 nM
CC[C@H]1OC(=O)[C@H](C)[C@@H](O)[C@H](C)[C@@H](O[C@@H]2O[C@H](C)C[C@H](N(C)C(=O)N3CCOCC3)[C@H]2O)[C@](C)(OC)C[C@@H](C)C(=O)[C@H](C)[C@H]2N(CCCN(Cc3c(Cl)cncc3Cl)c3ccc(OC)c(OC4CCCC4)c3)C(=O)O[C@]12C [Example 2]	880 nM
CC[C@H]1OC(=O)[C@H](C)[C@@H](O[C@H]2C[C@@](C)(OC)[C@@H](O)[C@H](C)O2)[C@H](C)[C@@H](O[C@@H]2O[C@H](C)C[C@H](N(C)C(=O)N3CCOCC3)[C@H]2O)[C@](C)(OC)C[C@@H](C)C(=O)[C@H](C)[C@H]2N(CCCOc3cc(C(=O)Nc4c(Cl)cncc4Cl)ccc3OC)C(=O)O[C@]12C [Example 3]	630 nM
CC[C@H]1OC(=O)[C@H](C)[C@@H](O)[C@H](C)[C@@H](O[C@@H]2O[C@H](C)C[C@H](N(C)C(=O)N3CCOCC3)[C@H]2O)[C@](C)(OC)C[C@@H](C)C(=O)[C@H](C)[C@H]2N(CCCOc3cc(C(=O)Nc4c(Cl)cncc4Cl)ccc3OC)C(=O)O[C@]12C [Example 4]	30 nM
CC[C@H]1OC(=O)[C@H](C)[C@@H](OC(=O)CN2CCOCC2)[C@H](C)[C@@H](O[C@@H]2O[C@H](C)C[C@H](N(C)C(=O)CN(C)C)[C@H]2O)[C@](C)(OC)C[C@@H](C)C(=O)[C@H](C)[C@H]2N(CCCOc3cc(C(=O)Nc4c(Cl)cncc4Cl)ccc3OC)C(=O)O[C@]12C [Example 5]	200 nM
